# Measurements taken from US4059692A, “Treating impaired consciousness with glutamyl-L-histidyl-L-prolinamide” (Takeda Chemical Industries, Ltd., priority 1975, dated 1977).
# Counter-ions that a name gives are not always drawn.
# Tested on: human patient with impaired consciousness due to functional or organic damage of the brain
# Test: Clinical administration of TRH tartrate to human patients with impaired consciousness (case reports 1-8)
# Assay type: in vivo
# Conditions: for motor/behavioural recovery: 200 μg free TRH i.m. daily
# Text: The method of the present invention is applicable to human patients with impaired consciousness due to functional or organic damage to the brain, such as cranial trauma, brain surgery, cerebrovascular disorder, brain tumors and the like.
# According to the present invention, TRH may be employed as the free base or in the form of a physiologically acceptable salt such as an acid addition salt e.g. a mineral acid salt (hydrochloride, sulphate, etc.) or an organic acid salt (acetate, tartrate, etc.). TRH tartrate is especially convenient for the administration. TRH or its salts are generally administered by the parenteral routes such as intravenous or intramuscular routes to the patients. The therapeutic dosage depends upon the route and upon the severity of impaired consciousness in each patient, and it may generally be chosen from within the range of from about 100 to about 5,000 μg. in terms of free TRH per adult human patient per day, more particularly from about 500 to about 5,000 μg. in terms of free TRH per adult human patient per day, when parenterally e.g. intravenously or intramuscularly administered. In case of those patients having swallowing capacity TRH or its salts may be orally administered. In this case, the dosage may be of course chosen from within the abovementioned range, but it may be increased over the said range, for example, up to about 150 mg. in terms of free TRH per adult human patient per day.
# Child: Postoperative state of haematoma of right frontal lobe caused by cranial trauma.
# Before administration, the patient was able to respond to only painful stimuli with a verbal expression of pain, otherwise being unconcious with a slight palpebral opening. Such conscious state lasted without modification for a further 10 days. The daily intramuscular injection of 292 μg. of TRH tartrate (dissolved in 0.8 ml of a sterile physiological saline; 200 μg. in terms of free TRH) successively for 10 days.
# person: Postoperative state of metastatic brain tumor on right frontal and pariental lobes.
# Craniotomy performed for the reduction of the intracranial pressure was followed by the gradual deterioration of consciousness. Therefore, TRH tartrate in the daily dose of 730 μg. (dissolved in 20 ml of 20% glucose; 500 μg. in terms of free TRH) was administered by intravenous drip infusion of 13 days.
# Child: Brain contusion due to cranial trauma.
# The child suffered from bodily contusion and loss of consciousness by collision on their bicycle with a train. At the time of hospitalization, the bilateral facilitation of the knee-jerk reflex was associated with the positive Babinski's reflex bilaterally. The daily administration of 730 μg.
# Person: Post-operative state of glioblastoma.
# The surgical resection of glioblastoma by cranitomy was gradually followed by a worsening of the general condition associated with impaired consciousness for 3 months.
# person: Traumatic protracted coma.
# The patient had been thrown from a motor bike and disturbance of consciousness had become apparent immediately after the accident. There was movement of the extremities and grimacing of the face in response to pain stimulus. The disturbance of consciousness continued thereafter and the disturbance had become fixed for 2 years prior to medication with TRH. TRH tartrate in the daily dose of 7,300 μg. (dissolved in 200 ml of electrolyte solution; 5,000 μg. in terms of free TRH) was administered by intravenous drip infusion. […] They also began to answer friends vocally with "Ah", "Ah". […] The medication was terminated at the 10th day.
# person: Aneurysm of left cerebral artery.
# After an attack of subarachnoid hemorrhage, it was noted that they had lost accessibility with people around them and volition, and that they had been in an abstract state. This condition had lasted for 1 month. TRH tartrate in the daily dose of 3,650 μg. […]
# [1] = Case 3, 500 μg free TRH i.v. drip daily for 10 days
smiles,measurement,setting,value
NC(=O)[C@@H]1CCCN1C(=O)[C@H](Cc1cnc[nH]1)NC(=O)[C@@H]1CCC(=O)N1 [TRH tartrate],state of consciousness (response to interview),"Case 1: postoperative haematoma of right frontal lobe, 292 μg TRH tartrate (200 μg free TRH) intramuscular daily for 10 days, 5th day of treatment",prompt verbal reply with a smile to the interview by the doctor
same,motor/behavioural recovery,"Case 1, 7th day",able to ride and sit by themself on a wheel-chair
same,motor/behavioural recovery,"Case 1, 8th day (the next day)",able to go to a stool with support
same,motor/behavioural recovery and conversation,"Case 1, one day after termination of the 10-day daily administration",able to sit by themself on the bed and to have a conversation with others
same,conscious state,"Case 2: postoperative metastatic brain tumor, 730 μg TRH tartrate (500 μg free TRH) intravenous drip infusion daily, 13 days, 2nd day",significant improvement of the conscious state
same,orientation ability,"Case 2, 500 μg free TRH i.v. drip daily, 2nd day",improvement of orientation ability
same,persistence of improved conscious state,"Case 2, after termination of the TRH treatment",persist for about one month after the termination of the TRH treatment
same,Babinski's reflex,"Case 3: brain contusion, 730 μg TRH tartrate (500 μg free TRH) i.v. drip daily for 10 days, 2nd day",sluggish appearance of Babinski's reflex
same,impaired consciousness,[1],began to be improved from the 4th day
same,impaired orientation,[1],markedly improved
same,Babinski's reflex,"Case 3, 500 μg free TRH i.v. drip daily, 3rd day",disappearance on the 3rd day
same,final outcome,"Case 3, after treatment",recovered without any neurological abnormality
same,motor recovery,"Case 3, one day after termination of the daily administration",able to walk
same,palpebral opening and eyeball movement,"Case 4: post-operative glioblastoma, 1,460 μg TRH tartrate (1,000 μg free TRH) i.v. drip daily for 10 days",prolonged the time-length of the palpebral opening from the 4th day
same,consciousness,"Case 4, 1,000 μg free TRH i.v. drip daily for 10 days",remarkable improvement of the consciousness
same,response to vocal questioning,"Case 5: traumatic protracted coma fixed for 2 years, 7,300 μg TRH tartrate (5,000 μg free TRH) i.v. drip daily, two days after start",began to respond with a sound to vocal questioning and turn the eyes towards the questioner
same,side effects,"Case 5, 5,000 μg free TRH i.v. drip daily, 10 days treatment period",No side effects were observed
same,level of consciousness,"Case 5, 5,000 μg free TRH i.v. drip daily, from about the fifth day",definite improvement in the level of consciousness
same,abstract state,"Case 6: aneurysm of left cerebral artery, subarachnoid hemorrhage, 3,650 μg TRH tartrate (2,500 μg free TRH) i.v. drip daily for 10 days, third day",abstract state disappeared
same,side effects,"Case 6, 2,500 μg free TRH i.v. drip daily for 10 days",No noteworthy side effects were observed
same,state of consciousness,"Case 6, 2,500 μg free TRH i.v. drip daily, seventh day",restored close to normal
same,behavior and spontaneous activity,"Case 7: sequelae of head trauma, 8.76 mg TRH tartrate (6 mg free TRH) orally daily for 2 weeks, from the third day",normalization of behavior and spontaneous activity
same,side effects,"Case 7, 6 mg free TRH orally daily for 2 weeks",No side effects were noted
same,conversation with people,"Case 7, 6 mg free TRH orally daily, after 1 week",began to actively converse with people around them
same,persistence of improvement in level of consciousness,"Case 7, after medication was terminated at 2 weeks",improvement in the level of consciousness was retained
same,spontaneous activity / volition,"Case 8: sequelae of head trauma, 17.52 mg TRH tartrate (12 mg free TRH) orally daily, after 2 weeks",began to actively watch television or play the pinball machine
same,agnosia and disorientation,"Case 8, 12 mg free TRH orally daily, after 2 weeks",little change in the agnosia and disorientation
same,side effects,"Case 8, 12 mg free TRH orally daily, during and after termination of medication",No side effects have been observed
same,condition after termination of medication,"Case 8, medication terminated after 2 weeks, after 3 months",no marked change in the condition of the patient
"NC(=O)[C@@H]1CCCN1C(=O)[C@H](Cc1c[nH]cn1)NC(=O)[C@@H]1CCC(=O)N1 [TRH, L-pyroglutamyl-L-histidyl-L-prolinamide]",impaired consciousness (overall),"Case 5, 5,000 μg (free TRH) per day, case had not responded to conventional treatment",significant improvement of impaired consciousness
